{"source": "patent US6531453B1", "about": "“NKT cell activators containing α-glycosylceramides” (Kirin Beera Kabushiki Kaisha, priority 1997, dated 2003)", "key": {"[1]": {"system": "mouse lymphoma YAC-1 cells", "assay": "Cytotoxic activity of spleen NKT cells against tumor cells (4 hour 51Cr-release) after i.v. administration to RAG-1KO/Vα14tg/Vβ8.2tg mice", "type": "in vivo", "conditions": "100 μg/kg i.v., spleen taken 24 hours later, FIG. 1", "procedure": "A vehicle (physiological saline containing 0.025% Polysolvate 20) or 100 μg/kg of KRN 7000 was intravenously administered to RAG-1KO/Vα14tg/Vβ8.2tg mice (bearing a large number of NKT cells but not B cells, T cells or NK cells in their lymphocyte fraction), and 24 hours later, the spleen was taken out from each mouse to prepare spleen cells by conventional methods. RAG-1KO/Vαl14tg/Vβ8.2tg mice were established by deletion of the RAG-1 gene and forcible expression of Vα14 and Vβ8.2 gene (Kawano T. et al., Science, 278, 1626-1629 (1997)). Thesemice are available from Masaru Taniguchi, School of Medicine, Chiba University. Cytotoxic activity of these spleen cells to mouse lymphoma YAC-1 cells was studied by the 4 hour-^51Cr-release method (Kobayashi, E. et al., Oncology Res., 7, 529 ([…]))."}, "Vα14+ NKT cells": {"system": "Vα14+ NKT cells", "assay": "Stimulation of spleen NKT cell proliferation in C57BL/6 mice (3-color FACS analysis)", "type": "in vivo, mouse", "procedure": "A vehicle (physiological saline solution containing 0.5% Polysolvate 20) or 1, 10 or 100 ng/kg of KRN 7000 was intravenously administered to C57BL/6 mice (Japan SLC, Inc.), and the spleen of individual mice was taken out after 24 hours to prepare spleen cells by conventional methods. These spleen cells were incubated in a plastic dish for 30 minutes to prepare nonadherent cells. By removing B cells in this nonadherent cells, a lymphocyte fraction was prepared. T cells, NK cells, NKT cells and Vα14^+ NKT cells in this fraction were analyzed by the 3-color FACS analysis using the FITC-labeled anti-TCR αβ monoclonal antibody (Pharmingen), cychrome-labeled anti-NK1.1 monoclonal antibody (Pharmingen) and PE-labeled anti-Vα14 monoclonal antibody (FIG. 2). The anti-Vα14 monoclonal antibody was obtained by implanting anti-Vα14 monoclonal antibody producing hybridomas (CMS-1; available from Masaru Taniguchi et al, School of Medicine, Chiba University) in nude mice and recovering ascites from the animals to purify the antibody. In FIGS. 2A and 2B, the numbers of NK1.1 cells, TCRαβ cells and […] in the lymphocyte fraction were expressed as fluorescence intensity of the labeled antibodies against these cells."}, "MRL lpr/lpr mice": {"system": "MRL lpr/lpr mice", "assay": "Survival period of MRL lpr/lpr mice", "type": "in vivo, mouse", "conditions": "100 μg/kg i.p. twice a week from the age of 5 weeks, 10 animals per group; all vehicle mice died within 250 days, FIG. 4", "procedure": "Ten animals per group of female MRL lpr/lpr mice were used for the following experiment. MLR mice purchased at the age of 4 weeks were randomly divided into 2 groups (10 animals per group). A vehicle (a physiological saline solution containing 0.025% Polysolvate 20) or KRN 7000 (100 μg/kg) was intraperitoneally administered twice a week (on Tuesday and Friday) to the animals starting from the age of 5 weeks. Survival of the animals was observed every day."}, "pregnant C57BL/6 mice": {"system": "pregnant C57BL/6 mice", "assay": "Induction of abortion in pregnant C57BL/6 mice", "type": "in vivo, mouse", "procedure": "(§1) C57BL/6 mice (Japan SLC) were used for the following experiment. The day when a vaginal plug was observed was defined as day 0. Pregnant mice were divided into 2 groups (6 mice per group), i.e., one group to which 150 μg/kg of KRN 7000 were intravenously administered on days 7, 8 and 9, and another to which PBS (phosphate-buffered saline) was administered in the same way. On day 12, the uterus was removed to observe the state of the embryo."}, "[2]": {"system": "Vα14+ NKT-deficient (Jα281KO) mice", "assay": "Induction of abortion in Vα14+ NKT-deficient (Jα281KO) mice", "type": "in vivo, mouse", "conditions": "same amount, same manner, PBS group 5.0%", "procedure": "as §1\nWhen the same amount of KRN 7000 was administered to Vα14^+ NKT-deficient (Jα281KO) mice (Kawano, T. et al., Science, 278, 1626-1629 (1997)) in the same manner, the abortion rate was 5.3%, which was equivalent to that for the PBS-administered group (5.0%). The Vα14^+ NKT-deficient mice are available from Masaru Taniguchi, School of Medicine, Chiba University."}, "[3]": {"conditions": "spleen, i.v., 24 hours, FIG. 2C"}}, "data": [{"smiles": "CCCCCCCCCCCCCCCCCCCCCCCCCC(=O)N[C@@H](CO[C@H]1O[C@H](CO)[C@H](O)[C@H](O)[C@H]1O)[C@H](O)[C@H](O)CCCCCCCCCCCCCC", "note": "[KRN 7000, (2S,3S,4R)-1-(α-D-galactopyranosyloxy)-2-hexacosanoylamino-3,4-octadecanediol]", "values": [{"measurement": "cytotoxic activity against YAC-1 cells of spleen cells vs vehicle-administered mice", "setting": "[1]", "value": "significantly higher"}, {"measurement": "rate of NK1.1+ TCRαβ cells in the spleen lymphocyte fraction vs vehicle", "setting": "Vα14+ NKT cells; 100 ng/kg i.v., 24 hours, FIG. 2A", "value": "marked increase"}, {"measurement": "rate of Vβ14+ cells in NK1.1+ TCRβα+ cells vs vehicle", "setting": "Vα14+ NKT cells; 100 ng/kg i.v., 24 hours, FIG. 2B", "value": "increase"}, {"measurement": "numbers of NK cells in the spleen lymphocyte fractions", "setting": "Vα14+ NKT cells; 10 or 100 ng/kg i.v., 24 hours, FIG. 2C", "value": "equal to those from the vehicle-administered mice"}, {"measurement": "increase in numbers of Vα14+ NKT cells in the spleen lymphocyte fraction vs vehicle", "setting": "Vα14+ NKT cells; i.v., 24 hours, FIG. 2C", "value": "more than four times"}, {"measurement": "increase in numbers of Vα14− NKT cells in the spleen lymphocyte fraction vs vehicle", "setting": "Vα14+ NKT cells; i.v., 24 hours, data not shown", "value": "more than three times"}, {"measurement": "numbers of Vα14+ cells in the liver", "setting": "Vα14+ NKT cells; liver, data not shown", "value": "marked increase"}, {"measurement": "numbers of Vα14− NKT cells in the liver", "setting": "Vα14+ NKT cells; liver, data not shown", "value": "marked increase"}, {"measurement": "increase in the numbers of T cells vs vehicle-administered mice", "setting": "Vα14+ NKT cells; [3]", "value": "about 2 fold"}, {"measurement": "increase in the numbers of lymphocyte fractions vs vehicle-administered mice", "setting": "Vα14+ NKT cells; [3]", "value": "about 2 fold"}, {"measurement": "mice surviving at 350 days after the start of the administration", "setting": "MRL lpr/lpr mice", "value": "three mice"}, {"measurement": "embryos dead and resorbed", "setting": "pregnant C57BL/6 mice; 150 μg/kg i.v. on days 7, 8 and 9, uterus on day 12, of the total of 36 embryos", "value": 12}, {"measurement": "abortion rate", "setting": "pregnant C57BL/6 mice; 150 μg/kg i.v. on days 7, 8 and 9, PBS group 5.6%", "value": 33, "unit": "%"}, {"measurement": "abortion rate", "setting": "[2]", "value": 5.3, "unit": "%"}]}]}
